Like-named read-outs stand apart in the source and are kept apart here.
Columns and labels:
BRD4 (BD1) = molecular target: T1, BRD4 (BD1) (Homo sapiens, UniProt O60885); assay: BRD4 AlphaLisa binding assay
T1 construct: His; made in house
Procedure, shortened: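 BRD4 (BD1) (30 nM final) with peptide (200 nM final) in 40 mM HEPES pH 7.0, 40 mM NaCl, 1 mM DTT, 0.01% BSA, 0.008% Brij-35, 1.2% DMSO, 20 min at RT with compound.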

[1] = test system: MYC mRNA in MV4:11 (AML) cells; assay: cMyc RNA quantification assay (QuantiGene) in MV4:11 cells; type: cell-based; conditions: Homo sapiens, 4 h, QuantiGene 2.0
Procedure, shortened: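 Cells exposed to a range of compound concentrations for 4 h, then MYC mRNA quantified by QuantiGene 2.0 branched-DNA assay. Biological duplicates averaged and normalized to DMSO vehicle, expressed as percent MYC mRNA.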

[2] = test system: IL-6 secretion in THP-1 cells; assay: Cell-based IL-6 quantification assay (ELISA, Mesoscale) in LPS-treated THP-1 cells; conditions: Homo sapiens, LPS 4 μg/mL, 16 h, ELISA value/CellTiter-Glo ratio
Procedure, shortened: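 THP-1 cells (100,000/well, RPMI-10% FBS) stimulated with 4 μg/mL LPS and incubated 16 h with compound at various concentrations. Supernatant IL-6 measured by Mesoscale ELISA, normalized to CellTiter-Glo cell content; % inhibition of secretion from the ratio.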

[3] = BRD4 (BD1) 30 nM, biotinylated H4-tetraacetyl peptide 200 nM, read-out: BRD4 AlphaLisa

SMILES | IC50 (BRD4 (BD1); [3]) [µM] | IC50 [1] [µM] | IC50 [2] [µM] | IC50 (BRD4 (BD1)) [µM]
Cc1nnc2n1-c1ccccc1N(c1ccc(Cl)cc1)CC2 [Compound 2, 6-(4-chlorophenyl)-1-methyl-5,6-dihydro-4H-benzo[b][1,2,4]triazolo[4,3-d][1,4]diazepine] |  | 1 to 10 | 1 to 10 | 0.1 to 1
Cc1nnc2n1-c1ccc(-c3ccc(N)nc3)cc1N(c1ccc(Cl)cc1)C[C@H]2C [Compound 26, (R)-4H-[1,2,4]triazolo[4,3-a][1,5]benzodiazepine, 5,6-dihydro-1,4-dimethyl-8-(6-aminopyridin-3-yl)-6-(4-chloro-phenyl)] | < 0.1 | < 0.1 | < 0.1 | 
Cc1nnc2n1-c1ccc(-c3ccc(N)nc3)cc1N(c1ccc(Cl)cc1)CC2C (stereo not drawn) [Compound 23, 4H-[1,2,4]triazolo[4,3-a][1,5]benzodiazepine,5,6-dihydro-1,4-dimethyl-8-(6-aminopyridin-3-yl)-6-(4-chloro-phenyl)] | < 0.1 | < 0.1 | < 0.1 | 
Cc1nnc2n1-c1ccccc1N(c1ccc(Cl)cc1)C(C)C2 (stereo not drawn) [Compound 18, 6-(4-chlorophenyl)-1,5-dimethyl-5,6-dihydro-4H-benzo[b][1,2,4]triazolo[4,3-d][1,4]diazepine] | 0.1 to 1 | 1 to 10 | > 1 | 
Cc1nnc2n1-c1c(F)cccc1N(c1ccc(Cl)cc1)CC2 [Compound 17, 6-(4-chlorophenyl)−10-fluoro-1-methyl-5,6-dihydro-4H-benzo[b][1,2,4]triazolo[4,3-d][1,4]diazepine] | 1 to 10 | 1 to 10 | > 1 | 
Cc1ccc(-c2ccc3c(c2)N(c2ccc(Cl)cc2)C[C@@H](C)c2nnc(C)n2-3)cn1 [Compound 29, (R)-4H-[1,2,4]triazolo[4,3-a][1,5]benzodiazepine, 5,6-dihydro-1,4-dimethyl-8-(6-methylpyridin-3-yl)-6-(4-chloro-phenyl)] | < 0.1 | < 0.1 | < 0.1 | 
Cc1nnc2n1-c1ccc(-c3cnn(CC(N)=O)c3)cc1N(c1ccc(Cl)cc1)C[C@H]2C [Compound 46, 4H-[1,2,4]triazolo[4,3-a][1,5]benzodiazepine,5,6-dihydro-(4R)-1,4-dimethyl-8-(1-(2-amino-2-oxoethyl)-1H-pyrazol-4-yl)-6-(4-chloro-phenyl)] | < 0.1 | 0.1 to 1 | 0.1 to 1 | 
Cc1nc(-c2ccc3c(c2)N(c2ccc(Cl)cc2)C[C@@H](C)c2nnc(C)n2-3)no1 [Compound 50, 4-R-4H-[1,2,4]triazolo[4,3-a][1,5]benzodiazepine, 5,6-dihydro-1,4-dimethyl-8-(5-methyl-1,2,4-oxadiazol-3-yl)-6-(4-chloro-phenyl)] | 0.1 to 1 | < 0.1 | < 0.1 | 
Cc1nnc2n1-c1ccccc1N(c1ccc(Cl)cc1)CC2C (stereo not drawn) [Compound 1, 6-(4-chlorophenyl)-1,4-dimethyl-5,6-dihydro-4H-benzo[b][1,2,4]triazolo[4,3-d][1,4]diazepine] |  | 0.1 to 1 | 0.1 to 1 | 0.1 to 1
Cc1nnc2n1-c1ccccc1N(c1ccc(Cl)cc1)C(C)(C)C2 [Compound 22, 6-(4-chlorophenyl)-1,5,5-trimethyl-5,6-dihydro-4H-benzo[b][1,2,4]triazolo[4,3-d][1,4]diazepine] | > 10 | 0.1 to 1 | 1 to 10 | 
Cc1nnc2n1-c1ccc(-c3ncc(C(=O)O)cn3)cc1N(c1ccc(Cl)cc1)CC2 [Compound 24, 4H-[1,2,4]triazolo[4,3-a][1,5]benzodiazepine, 5,6-dihydro-1-methyl-8-(5-(carboxy)pyrimidin-2-yl)-6-(4-chloro-phenyl)] | < 0.1 | 1 to 10 | > 1 | 
Cc1nnc2n1-c1ccc(Br)cc1N(c1ccc(Cl)cc1)C[C@@H]2C [Compound 37, (S)-4H-[1,2,4]triazolo[4,3-a][1,5]benzodiazepine, 5,6-dihydro-1,4-dimethyl-8-bromo-6-(4-chloro-phenyl)] | 1 to 10 | 1 to 10 | > 1 | 
Cc1ccc(-c2ccc3c(c2)N(c2ccc(Cl)cc2)C[C@H](C)c2nnc(C)n2-3)cn1 [Compound 28, (S)-4H-[1,2,4]triazolo[4,3-a][1,5]benzodiazepine, 5,6-dihydro-1,4-dimethyl-8-(6-methylpyridin-3-yl)-6-(4-chloro-phenyl)] | 1 to 10 | 1 to 10 | 1 to 10 | 
Cc1nnc2n1-c1ccc(-c3cnn(C)n3)cc1N(c1ccc(Cl)cc1)C[C@H]2C [Compound 48, 4H-[1,2,4]triazolo[4,3-a][1,5]benzodiazepine, 5,6-dihydro-(4R)-1,4-dimethyl-8-(2-methyl-2H-1,2,3-triazole-4-yl)-6-(4-chloro-phenyl)] | < 0.1 | < 0.1 | < 0.1 | 
Cc1nnc2n1-c1ccc(C(=O)NCCO)cc1N(c1ccc(Cl)cc1)C[C@H]2C [Compound 47, 4-R-4H-[1,2,4]triazolo[4,3-a][1,5]benzodiazepine,5,6-dihydro-1,4-dimethyl-8-(2-hydroxyethylcarbamoyl)-6-(4-chloro-phenyl)] | 0.1 to 1 | 0.1 to 1 | 0.1 to 1 | 
Cc1nnc2n1-c1ccc(-c3cnn(C)c3)cc1N(c1ccc(Cl)cc1)C[C@@H]2C [Compound 42, (S)-4H-[1,2,4]triazolo[4,3-a][1,5]benzodiazepine, 5,6-dihydro-1,4-dimethyl-8-(1-methyl-1H-pyrazol-4-yl)-6-(4-chloro-phenyl)] | 0.1 to 1 | 1 to 10 | > 1 | 
Cc1nnc2n1-c1ccc(-c3cnc(N)nc3)cc1N(c1ccc(Cl)cc1)CC2C (stereo not drawn) [Compound 25] | < 0.1 | < 0.1 | 0.1 to 1 | 

Further lines, with some results ahead:

IC50 (BRD4 (BD1); [3]) [µM] | IC50 [1] [µM] | IC50 [2] [µM] | SMILES | IC50 (BRD4 (BD1)) [µM]
0.1 to 1 | 1 to 10 | > 1 | Cc1nnc2n1-c1ccc(-c3cnn(C)n3)cc1N(c1ccc(S(C)(=O)=O)cc1)C[C@@H]2C [Compound 72, (R)-4H-[1,2,4]Triazolo[4,3-a][1,5]benzodiazepine, 5,6-dihydro-1,4-dimethyl-8-(2-methyl-2H-1,2,3-triazole-4-yl)-6-(4-methylsulfonyl-phenyl)] | 
< 0.1 | < 0.1 | < 0.1 | Cc1c(-c2ccc3c(c2)N(c2ccc(Cl)cc2)C[C@@H](C)c2nnc(C)n2-3)cnn1C [Compound 59, (R)-6-(4-chlorophenyl)-8-(1,5-dimethyl-1H-pyrazol-4-yl)-1,4-dimethyl-5,6-dihydro-4H-benzo[b][1,2,4]triazolo[4,3-d][1,4]diazepine] | 
1 to 10 | 1 to 10 | 1 to 10 | Cc1nnc2n1-c1ccc(-c3cnn(C)c3)cc1N(c1ccc(C#N)cn1)C[C@@H]2C [Compound 58, (S)-4H-[1,2,4]triazolo[4,3-a][1,5]benzodiazepine, 5,6-dihydro-1,4-dimethyl-8-(1-methyl-1H-pyrazol-4-yl)-6-(5-cyanopyridin-2-yl)] | 
< 0.1 | < 0.1 | < 0.1 | Cc1nnc2n1-c1ccc(-n3cncn3)cc1N(c1ccc(Cl)cc1)C[C@H]2C [Compound 54, (R)-6-(4-chlorophenyl)-1,4-dimethyl-8-(1H-1,2,4-triazol-1-yl)-5,6-dihydro-4H-benzo[b][1,2,4]triazolo[4,3-d][1,4]diazepine] | 
0.1 to 1 | 1 to 10 | 0.1 to 1 | Cc1ncnn1-c1ccc2c(c1)N(c1ccc(Cl)cc1)C[C@@H](C)c1nnc(C)n1-2 [Compound 65, (R)-6-(4-chlorophenyl)-1,4-dimethyl-8-(5-methyl-1H-1,2,4-triazol-1-yl)-5,6-dihydro-4H-benzo[b][1,2,4]triazolo[4,3-d][1,4]diazepine] | 
< 0.1 | 0.1 to 1 | 0.1 to 1 | Cc1nnc2n1-c1ccc(-c3cnn(C)n3)cc1N(c1ccc(S(C)(=O)=O)cc1)C[C@H]2C [Compound 73, (S)-4H-[1,2,4]Triazolo[4,3-a][1,5]benzodiazepine, 5,6-dihydro-1,4-dimethyl-8-(2-methyl-2H-1,2,3-triazole-4-yl)-6-(4-methylsulfonyl-phenyl)] | 
< 0.1 | < 0.1 | < 0.1 | Cc1nnc2n1-c1ccc(-c3ccc(=O)[nH]c3)cc1N(c1ccc(Cl)cc1)C[C@H]2C [Compound 61, (R)-5-(6-(4-chlorophenyl)-1,4-dimethyl-5,6-dihydro-4H-benzo[b][1,2,4]triazolo[4,3-d][1,4]diazepin-8-yl)pyridin-2(1H)-one] | 
0.1 to 1 | < 0.1 | < 0.1 | Cc1noc(-c2ccc3c(c2)N(c2ccc(Cl)cc2)C[C@@H](C)c2nnc(C)n2-3)n1 [Compound 51, 4-R-4H-[1,2,4]triazolo[4,3-a][1,5]benzodiazepine,5,6-dihydro-1,4-dimethyl-8-(3-methyl-1,2,4-oxadiazol-5-yl)-6-(4-chloro-phenyl)] | 
< 0.1 | < 0.1 | < 0.1 | Cc1nnc2n1-c1ccc(-c3cn(C)nn3)cc1N(c1ccc(Cl)cc1)C[C@H]2C [Compound 64, 4H-[1,2,4]Triazolo[4,3-a][1,5]benzodiazepine, 5,6-dihydro-1,4-dimethyl-8-(1-methyl-2H-1,2,3-triazole-4-yl)-6-(4-chloro-phenyl)] | 
0.1 to 1 | 1 to 10 | > 1 | Cc1nnc2n1-c1ccc(-c3cnc(N)cn3)cc1N(c1ccc(C#N)cc1)C[C@@H]2C [Compound 63] | 
